Numbered stars: 1 amine (or outer) side, 2 acyl side, 3 side chain; on linkers, the order of the positions; unused ones are H or OH. Bridge positions count the residues as written; N and C are the ends. Square brackets hold non-standard residues; d marks the D form. Peptide text beside a SMILES is read from it. * marks the point of attachment. X1 = O=C([C@H](CCCCCC=[*:3])N[*:1])[*:2]; Nle = CCCC[C@H](N)C(=O)O; BrAc = O=C(CBr)*
Assays:
[1] = test system: FtsB-mNG localization in E. coli lptD4213 (imp); assay: Localization of FtsB-mNG (fluorescence microscopy); format: cell-based; details: peptide c = 100 μM, 60 min after addition, MOPS rich medium, 37 °C
Experimental: were incubated for 1 h at 50 °C. The condensates were collected by centrifuging for 10 s. The digests were mixed for a few seconds and transferred to another tube. 0.5 % TFA was added to inactivate trypsin. The samples were […]
E.coli mutant lptD4213 (imp)
MOPS: MOPS EZ Rich Defined Medium Kit M2105 (Teknova).
At the end of the day, the cells
The next day, the cells were grown and diluted […]
objective. […] In all experiments, the cells […]
ex470/40, dic495LP, em525/50).

[2] = test system: E. coli 87; format: cell-based, Escherichia coli
Experimental: 1.11 Checkerboard synergy assay
As described by Hsieh et al.,6 two-fold dilution series of cationic peptides were made in polypropylene microtiter plates (Ratiolab, L6018123, Dreieich, Germany) in 50 μL volume of MOPS medium/2% DMSO. Primary clinical isolates of Escherichia coli 87 were provided by Dr. Karin van Dijk, Amsterdam UMC. In a similar manner, two-fold dilution series of 17fα were made in polystyrene microtiter plates (Costar, REF3779, Corning NY, United States) in 70 μL volume of MOPS medium. Then, 50 μL of the 17fα series was transferred to the L8S1 containing polypropylene plate, resulting in a checkerboard titration of a L8S1 on the vertical axis and an 17fα on the horizontal axis. Mid-log phase cultures were diluted to OD600 0.1 and 10 μL culture was added to each well of the microtiter plate, resulting in a total volume of 110 μL and an OD600 of ~0.01 ([…]), and the OD600 was measured every 15 min for 12 h using the microplate reader. First, the MIC values of the compounds alone were determined as described previously. Similarly, the MIC values of the compound combination were determined (the fractional inhibitory concentrations (FIC))6. With these MIC values and FIC values, the fractional inhibitory concentration index (FICindex) was calculated as follows:
FIC = FICantibiotic + FICpeptide (1) […]

[3] = Toxicity test in uninfected zebrafish larvae; details: 15 zebrafish per condition, L8S1 3.125 µM, 17fα 70 µM, n = 1 replicate
[4] = target: FtsQ(50–276) (Escherichia coli, UniProt P06136); format: biochemical, E. coli; design: pET16b FtsQ(50˗276), a His6 fusion; made in house; host or cells: Escherichia coli BL21 DE3; details: peptide 125 μM, FtsQ(50–276) 50 μM, 37 °C, 1 or 3 h
Chain of FtsQ(50–276) (P06136 50-276): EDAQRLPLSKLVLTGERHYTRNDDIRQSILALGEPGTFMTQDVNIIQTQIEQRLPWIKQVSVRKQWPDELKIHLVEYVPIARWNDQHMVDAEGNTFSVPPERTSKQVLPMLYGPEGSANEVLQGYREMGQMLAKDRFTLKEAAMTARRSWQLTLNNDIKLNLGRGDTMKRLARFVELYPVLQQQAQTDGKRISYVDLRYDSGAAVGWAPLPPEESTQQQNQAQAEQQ
Experimental: 1.5 Protein modification assay
To determine the reactivity of the different modifiers FtsQ(50˗276) was diluted to a concentration of 100 µM in 20 mM NH4HCO3 buffer (pH 7.6, 150 mM NaCl). The individual peptides were diluted to a concentration of 250 μM in the same buffer. Equal volumes of both solutions were mixed and incubated at 37 °C for the given time period (1 h or 3 h). The reaction was quenched using 5x SDS sample buffer (pH 6.8, 1.875 g TRIS-Cl, 25 mL glycerol, 5 g SDS, 12.5 mL β-mercaptoethanol, 0.5 % bromphenol blue and add 50 mL ddH2O). Samples were heated to 96 °C for 2 min and subsequently analysed by 17 % tris/tricine PAGE (15 min at 90 V and then 3:45 h at 150 V). PageRuler™ Prestained Protein Ladder, 10 to 180 kDa (Thermo Scientific™) was used as a ladder.
Staining was performed using standard Coomassie Staining Solution (40 mL EtOH, 0.3 g Coomassie Blue R250, 0.3 g Coomassie Blue G250, ad 100 mL ddH2O.) and then destained using water.
17 % Tris/Tricine gel (2x):
Running gel: 1.6 mL H2O, 5.5 mL AB-mix, 2.5 mL Buffer A, 100 μL 10% APS, 10 μL 1% TEMED Stacking gel: 2.1 mL H2O, 0.5 mL AB-mix, 0.38 mL Buffer A, 50 μL 10% APS, 5 μL 1% TEMED […]
Buffer A (4x) pH 8.45 3M Tris, 0.3 % SDS; Anode Buffer (10x) pH 8.8, 3M Tris; Cathode buffer (10x) 1M Tris, […]

SMILES: CCCC[C@@H]1NC(=O)[C@H](CO)NC(=O)[C@H](CC(C)C)NC(=O)[C@H](CCC(=O)O)NC(=O)[C@H](CC(N)=O)NC(=O)[C@@H](NC(=O)[C@H](C)NC(C)=O)CCCCCC=CCCCCC[C@@H](C(=O)N[C@@H](CCCCNC(=O)CBr)C(=O)N[C@@H](Cc2ccccc2)C(=O)N[C@@H](Cc2ccc(O)cc2)C(=O)N[C@@H](CCCNC(=N)N)C(=O)N[C@@H](CC(C)C)C(N)=O)NC(=O)CNC(=O)[C@@H]2CCCN2C(=O)[C@H](CCCNC(=N)N)NC(=O)[C@H]([C@@H](C)O)NC1=O [17fα] (Ac-A[X1]NELS[Nle]TRPG[X1]K(BrAc)FYRL-NH2; staple 2-12)
- FtsB-mNG midcell localization [1]: loss of midcell localization
- FICindex (fractional inhibitory concentration index) ([2]; 17fα in combination with L8S1, checkerboard synergy assay, OD600 after 12 h, MIC = 90% growth inhibition, from averages of MICs (L8S1 n = 3, 17fα n = 5), ≤ 0.5 synergistic): 0.33
- inhibitor concentration required for growth inhibition ([2]; clinical multidrug-resistant E. coli 87, MOPS medium, OD600): > 100 µM
- Surviving zebrafish, Day 1 [3]: 15
- Surviving zebrafish, Day 2 [3]: 15
- specificity of FtsQ(50–276) modification (number of up-shifted bands) [4]: robust and selective covalent modification
